The results in this text go back to article PMC8911803, “The Antiprotozoal Activity of Papua New Guinea Propolis and Its Triterpenes” (Molecules, 2022).

For test [1], the system named is T. b. brucei B48. Kind of test: microbe, parasite or virus in culture. The test is classed as cell-based, Trypanosoma b. brucei. The note with it: for RF resistance factor / RF resistance factor (EC50 B48/EC50 WT): T. b. brucei B48 vs S427WT. On the procedure:
(§1) Alamar blue (resazurin) assays were used to obtain the EC50 values for PNG and its fractions in at least three independent determinations.
(§2) The extract and the purified compounds were cultured and tested against T. b. brucei, T. congolense and C. fasciculata as described previously. The T. b. brucei strains were a standard drug-sensitive lab strain, Lister 427 (wild-type) and the derived cell line B48 was developed from the wild-type by gene deletion of the drug transporter TbAT1 followed by in vitro adaptation to pentamidine, leading to the further loss of the gene encoding TbAQP2 [48], rendering it highly resistant to the diamidine and melaminophenyl arsenical classes of trypanocides. The T. congolense strains were the lab strain IL3000 and its diminazene-adapted clone 6C3 [29]. The C. fasciculata strain HS6 was a gift of Prof. Terry Smith (University of St Andrews, UK).

The test system of another test is T. congolense IL3000. Kind of test: Antiprotozoal assay, drug-sensitive T. congolense IL3000. The test is classed as cell-based, Trypanosoma congolense.
A further test has as its system U937 cells. Kind of test: Cytotoxicity against U937 cells (resazurin). The test is classed as cell-based, human. Conditions: for EC50 / AVG EC50 U937 cells: n = 3; for SI, selectivity index relative to T. b. brucei WT: EC50(U937)/EC50(TbbWT): U937 vs T. b. brucei WT. On the procedure: U937 cells (European Collection of Cell Cultures Cat. No. 85011440, supplied by Sigma Aldrich, Dorset, UK) were cultured as described previously. U937 cells were grown to log phase at 37 °C and harvested at a density of 1 × 10^5 cells/mL in a 96-well plate (TPP, Trasadingen, Switzerland). Aliquots of 100 µL/well of the cells were added and the plate was incubated for 24 h at 37 °C, 5% CO2, 100% humidity. A 2-fold serial dilution of the test compound was carried out in growth medium, in another 96-well plate, and 100 μL of each dilution was then transferred to the cultured cells using a multichannel pipette, followed by another incubation for 24 h. Resazurin dye was then added at a final concentration of 10% (v/v) and the plates were incubated for a further 24 h, after which fluorescence was measured using a Wallac Victor 2 microplate reader (λ Ex/Em: 560/590 nm). The compounds and fractions were tested in triplicate, and cell viability was expressed as a percentage of the drug-free control. The resulting data were analysed using GraphPad Prism 8 to obtain dose-response curves and corresponding mean inhibitory concentration (EC50) values.

A further test concerns T. b. brucei S427WT. Kind of test: Alamar blue (resazurin) assay, T. b. brucei s427 wild-type. The test is classed as cell-based, Trypanosoma b. brucei. On the procedure: as §1, §2
The subject of the next test is T. congolense 6C3. The test can be described thus: microbe, parasite or virus in culture. The test is classed as cell-based, Trypanosoma congolense. The note with it: for RF resistance factor: T. congolense 6C3 vs IL3000.
Another test deals with C. fasciculata. Kind of test: Antiprotozoal assay, C. fasciculata. The test is classed as cell-based, Crithidia fasciculata. The note with it: Table 9.
The subject of test [2] is T. b. brucei B48. Kind of test: Drug sensitivity using cell count (growth curve) of T. b. brucei B48. The test is classed as cell-based, Trypanosoma b. brucei. The note with it: 1×, 2× and 4× EC50, 2 × 10^5 cells/mL, up to 48 h.
[3] abbreviates: Trypanosoma brucei, read-out: AVG EC50 T. b. brucei B48, Table 5, purified compounds, n = 3.
The mark [4] stands for this setting: Trypanosoma congolense, Table 7, purified compounds, n = 3, read-out: AVG EC50 T. congolense IL3000.
Setting [5] is: Homo sapiens, U-937, Table 8, purified compounds.
[6] abbreviates: Trypanosoma brucei, Table 5, purified compounds, n = 3.
Setting [7] is: Trypanosoma congolense, Table 7, purified compounds, n = 3.
Setting [8] is: Table 5, purified compounds, n = 3.
Setting [9] is: Table 5, purified compounds, n = 3, read-out: AVG EC50 T. b. brucei B48.
Setting [10] is: drug-resistant strain vs standard strain.
Where [11] appears, read: Table 7, purified compounds, n = 3.

Values joined by “and” are separate entries in the source; they are usually repeats but may differ in a detail not shown here. Equal values may be shown once. Read-outs that look alike come from different tables or passages of the source.

The term EC50 denotes the concentration giving half of the maximal effect.

As for `C=C(C)[C@@H]1CC[C@]2(CO)CC[C@]3(C)[C@H](CC[C@@H]4[C@@]5(C)CC[C@H](O)C(C)(C)[C@@H]5CC[C@]43C)[C@@H]12` [Betulin, betulin], the RF resistance factor in the test with T. b. brucei B48 [1] (Table 5) is reported as 0.84; in the test on T. congolense 6C3 (Table 7), 1.03. For the same compound, the EC50 in the test with T. b. brucei B48 [1] (setting [3]) was 22.3 µg/mL and 50.5 µM; with T. congolense IL3000 (setting [4]), 21.5 µg/mL; in the test with U937 cells (setting [5]), 55.8 µg/mL and 126 µM; with T. b. brucei S427WT (setting [6]), 26.6 µg/mL and 60.1 µM; with T. congolense 6C3 (setting [7]) it was 22.1 µg/mL and 49.9 µM. Moreover, the “SI, selectivity index relative to T. b. brucei WT: EC50(U937)/EC50(TbbWT)” value in the test with U937 cells came to 2.1.
As to `C=C(C)[C@@H]1CC[C@]2(C(=O)O)CC[C@]3(C)[C@H](CC[C@@H]4[C@@]5(C)CC[C@H](O)C(C)(C)[C@@H]5CC[C@]43C)[C@@H]12` [Betulinic acid, betulinic acid], the RF resistance factor with T. b. brucei B48 [1] (Table 5) is listed as 0.81; in the test on T. congolense 6C3 (Table 7), 1.05. Further, the concentration giving a half-maximal response (EC50) is 19.6 µg/mL and 42.9 µM with T. b. brucei B48 [1] (setting [3]); 17.2 µg/mL in the test on T. congolense IL3000 (setting [4]); 51.7 µg/mL and 113 µM in the test on U937 cells (setting [5]); 24.2 µg/mL and 53.1 µM in the test with T. b. brucei S427WT (setting [6]); 18.1 µg/mL in the test on T. congolense 6C3 (setting [7]). Further, the “SI, selectivity index relative to T. b. brucei WT: EC50(U937)/EC50(TbbWT)” value in the test with U937 cells was 2.1.
On to `N=C(N)c1ccc(/N=N/Nc2ccc(C(=N)N)cc2)cc1` [Diminazene, reference compound], for which the 50% effective concentration (EC50) stood at 0.26 µM with T. congolense IL3000 (Trypanosoma congolense, read-out: AVG EC50 T. congolense IL3000, Table 6, diminazene control, footnote: EC50 in µM); 0.28 µM in the test with T. congolense IL3000 (Trypanosoma congolense, read-out: AVG EC50 T. congolense IL3000, Table 7, purified compounds, n = 3); 1.54 µM in the test on T. congolense 6C3 (Trypanosoma congolense, Table 6, diminazene control, footnote: EC50 in µM); 1.55 µM with T. congolense 6C3 (setting [7]). For the same compound, the RF resistance factor is recorded as 5.90 in the test with T. congolense 6C3 (Table 6) and 5.5 with T. congolense 6C3 (Table 7).
Take `CC(C)(O)[C@@H]1CC[C@]2(CO)CC[C@]3(C)[C@H](CC[C@@H]4[C@@]5(C)CC[C@H](O)C(C)(C)[C@@H]5CC[C@]43C)[C@@H]12` [Hydroxybetulin, 20-hydroxybetulin]: the “RF resistance factor (EC50 B48/EC50 WT)” value with T. b. brucei B48 [1] (Table 3) was determined as 0.47. Moreover, the “AVG EC50 T. b. brucei B48” value in the test on T. b. brucei B48 [1] (Table 3, pentamidine-resistant, n = 3) is 2.09 µg/mL; in the test with T. b. brucei B48 [1] (setting [8]), 0.97 µg/mL. Besides, the RF resistance factor was determined as 0.47 in the test with T. b. brucei B48 [1] (Table 5) and 0.48 in the test with T. congolense 6C3 (Table 6). Further, the EC50 in the test with T. b. brucei B48 [1] (setting [9]) came out at 2.09 µM; with U937 cells (Table 8, purified compounds), 102000 nM; in the test with T. b. brucei S427WT (setting [8]) it was 4.44 µM; in the test with T. congolense 6C3 (setting [11]) it was 6.09 µM. The “fold activity against drug-resistant strain of T. b. brucei” value in the test with T. b. brucei B48 [1] (setting [10]) was more than 2 fold. For the same compound, the “AVG EC50 C. fasciculata” value with C. fasciculata was determined as 23.4 µg/mL. Besides, the “AVG EC50 T. congolense IL3000” value in the test with T. congolense IL3000 (Table 6, n = 3) was 5.77 µg/mL; with T. congolense IL3000 (setting [11]), 5.77 µg/mL; in the test on T. congolense IL3000 (Table 7, purified compounds, n = 3, listed as hydroxybetulin), 5.8 ± 1.3 µg/mL. The “AVG EC50 U937 cells” value worked out at 47.0 µg/mL with U937 cells (Table 4) and 47.0 µg/mL with U937 cells (Table 8, purified compounds). The “SI, selectivity index relative to T. b. brucei WT: EC50(U937)/EC50(TbbWT)” value with U937 cells was determined as 23.0. Besides, the “selectivity index against WT T. congolense” value in the test on U937 cells (U937 vs WT T. congolense) is given as 8.1. For the same compound, the “selectivity index against resistant T. brucei” value in the test with U937 cells (U937 vs resistant T. brucei) is reported as 48.5. The “selectivity index against resistant T. congolense” value with U937 cells (U937 vs resistant T. congolense) is listed as 17.0. Moreover, the “AVG EC50 T. b. brucei S427WT” value in the test on T. b. brucei S427WT (Table 3, n = 3) turned out to be 2.04 µg/mL; with T. b. brucei S427WT (setting [8]) it was 2.04 µg/mL; with T. b. brucei S427WT (Table 5, purified compounds, n = 3, listed as hydroxybetulin), 2.0 ± 0.1 µg/mL. The “fold more active than betulinic acid against T. b. brucei” value with T. b. brucei S427WT (relative to betulinic acid) turned out to be 15 fold. Besides, the “Effect on in vitro growth of T. b. brucei B48 (cell count over time)” value in the test on T. b. brucei B48 [2] was “more trypanostatic effect”; in the test on T. b. brucei B48 [2] (listed as 20-hydroxybetulin), “trypanostatic”. Also, the “AVG EC50 T. congolense 6C3” value with T. congolense 6C3 (Table 6, diminazene-resistant, n = 3) came out at 6.09 µg/mL; with T. congolense 6C3 (setting [11]), 2.77 µg/mL. Moreover, the “fold activity against drug-resistant strain of T. congolense” value with T. congolense 6C3 (setting [10]) is listed as more than 2 fold.
On to `CC(CC/C=C(/CO)C(=O)O)C1CCC2(C)C3CCC4C(C)(C)C(O)CCC45CC35CCC12C` (stereo not shown) [Hydroxymangiferolic acid, 27-hydroxyisomangiferolic acid], for which the values for the RF resistance factor in the test on T. b. brucei B48 [1] (Table 5) and with T. congolense 6C3 (Table 7) were 0.87 and 0.94, respectively. Further, the “AVG EC50 T. b. brucei B48” value in the test on T. b. brucei B48 [1] (setting [8]) is 11.8 µg/mL. The concentration giving a half-maximal response (EC50) was found to be 25 µM in the test with T. b. brucei B48 [1] (setting [9]); 35.3 µM with T. congolense IL3000 (Table 7, purified compounds, n = 3, read-out: AVG EC50 T. congolense IL3000); 260000 nM in the test with U937 cells (Table 8, purified compounds); 28.8 µM with T. b. brucei S427WT (setting [8]); 33.2 µM in the test with T. congolense 6C3 (setting [11]). Moreover, the “AVG EC50 T. congolense IL3000” value in the test on T. congolense IL3000 (setting [11]) stood at 16.7 µg/mL. For the same compound, the “SI, selectivity index relative to T. b. brucei WT: EC50(U937)/EC50(TbbWT)” value in the test on U937 cells is on record as more than 7.4. In the test on T. b. brucei S427WT (setting [8]), the “AVG EC50 T. b. brucei S427WT” value is 13.6 µg/mL. Besides, the “AVG EC50 T. congolense 6C3” value in the test with T. congolense 6C3 (setting [11]) amounted to 15.7 µg/mL.
In the case of `C[C@H]1[C@H](C)CC[C@]2(C(=O)O)CC[C@]3(C)C(=CC[C@@H]4[C@@]5(C)C[C@@H](O)[C@H](O)[C@@](C)(CO)[C@@H]5[C@H](O)C[C@]43C)[C@H]12` [Madecassic acid, madecassic acid], the RF resistance factor in the test on T. b. brucei B48 [1] (Table 5) and with T. congolense 6C3 (Table 7) was 0.88 throughout. Also, the EC50 was 16 µg/mL and 31.7 µM in the test with T. b. brucei B48 [1] (setting [3]); 22.6 µg/mL and 67.6 µM with T. congolense IL3000 (setting [4]); 90.7 µg/mL and 180 µM in the test on U937 cells (setting [5]); 18.1 µg/mL and 36 µM in the test with T. b. brucei S427WT (setting [6]); 19.8 µg/mL and 59.1 µM with T. congolense 6C3 (setting [7]). Besides, the “SI, selectivity index relative to T. b. brucei WT: EC50(U937)/EC50(TbbWT)” value in the test on U937 cells amounted to 5.0.
Consider `N=C(N)c1ccc(OCCCCCOc2ccc(C(=N)N)cc2)cc1` [Pentamidine, pentamidine, reference compound], for which the “RF resistance factor (EC50 B48/EC50 WT)” value in the test with T. b. brucei B48 [1] (Table 3) came out at 210; in the test on T. b. brucei B48 [1] (Table 3, listed as pentamidine), 210.8. In the test with T. b. brucei B48 [1] (Table 5), this compound yielded an RF resistance factor of 145. Moreover, the half-maximal effective concentration (EC50) in the test on T. b. brucei B48 [1] (Trypanosoma brucei, read-out: AVG EC50 T. b. brucei B48, Table 3, pentamidine control, footnote: values in µM) amounted to 0.721 µM; in the test with T. b. brucei B48 [1] (setting [3]), 0.62 µM; in the test with T. b. brucei S427WT (Trypanosoma brucei, Table 3, pentamidine control, footnote: values in µM), 0.0034 µM; in the test with T. b. brucei S427WT (setting [6]) it was 0.0043 µM. The “Effect on in vitro growth of T. b. brucei B48 (cell count over time)” value with T. b. brucei B48 [2] was “parasites were almost completely eliminated from the media after 32 h”.
